Data on six compounds can be found in patent US20190119298A1, “FUSED 3-PHENYLTETRAMIC ACID DERIVATIVES HAVING HERBICIDAL ACTION” (Bayer CropScience Aktiengesellschaft, priority 2016, published 2019).

Common to all, as to format: in vivo
For assay [1], the system named is Setaria viridis. The assay can be described thus: Pre-emergence herbicidal effect. As to conditions: 320 g/ha, scored visually after 3 weeks vs untreated controls, 100% = plants have died. From the text: (§1) Seeds of monocotyledonous and dicotyledonous weed plants and crop plants are laid out in sandy loam soil in wood-fibre pots and covered with soil. The compounds of the invention, formulated in the form of wettable powders (WP) or as emulsion concentrates (EC), are then applied to the surface of the covering soil as aqueous suspension or emulsion at a water application rate equating to 600 to 800 L/ha with addition of 0.2% wetting agent. After the treatment, the pots are placed in a greenhouse and kept under good growth conditions for the trial plants. The damage to the test plants is scored visually after a test period of 3 weeks by comparison with untreated controls (herbicidal activity in percent (%): 100% activity=the plants have died, 0% activity=like control plants). SETVI: Setaria viridis

Assay [2] concerns Avena fatua. The experiment in a line: Post-emergence herbicidal effect. As to conditions: one-leaf stage, 320 g/ha, assessed visually after about 3 weeks, 100% = plants have died. As for the experimental part:
(§2) AVEFA: Avena fatua Seeds of monocotyledonous and dicotyledonous weed and crop plants are laid out in sandy loam soil in wood-fibre pots, covered with soil and cultivated in a greenhouse under good growth conditions. 2 to 3 weeks after sowing, the test plants are treated at the one-leaf stage. The compounds of the invention, formulated in the form of wettable powders (WP) or as emulsion concentrates (EC), are then sprayed onto the green parts of the plants as aqueous suspension or emulsion at a water application rate equating to 600 to 800 L/ha with addition of 0.2% wetting agent. After the test plants have been left to stand in the greenhouse under optimal growth conditions for about 3 weeks, the action of the preparations is assessed visually in comparison to untreated controls (herbicidal action in percent (%): 100% activity=the plants have died, 0% activity=like control plants).

The test system of assay [3] is Alopecurus myosuroides. The experiment in a line: Pre-emergence herbicidal effect. As to conditions: 320 g/ha, scored visually after 3 weeks vs untreated controls, 100% = plants have died.
Excerpt: as §1, with “ALOMY: Alopecurus myosuroides” for “SETVI: Setaria viridis”

Assay [4] relates to Echinochloa crus-galli. The experiment in a line: Post-emergence herbicidal effect. As to conditions: one-leaf stage, 320 g/ha, assessed visually after about 3 weeks, 100% = plants have died. The method, then: as §2, with “ECHCG: Echinochloa crus-galli” for “AVEFA: Avena fatua”
Assay [5] has as its system Lolium multiflorum. The assay can be described thus: Post-emergence herbicidal effect. As to conditions: one-leaf stage, 320 g/ha, assessed visually after about 3 weeks, 100% = plants have died. The method, then: as §2, with “LOLMU: Lolium multiflorum” for “AVEFA: Avena fatua”
Assay [6] deals with Echinochloa crus-galli. The experiment in a line: Pre-emergence herbicidal effect. As to conditions: 320 g/ha, scored visually after 3 weeks vs untreated controls, 100% = plants have died.
Excerpt: as §1, with “ECHCG: Echinochloa crus-galli” for “SETVI: Setaria viridis”

The test system of assay [7] is Setaria viridis. The experiment in a line: Post-emergence herbicidal effect. As to conditions: one-leaf stage, 320 g/ha, assessed visually after about 3 weeks, 100% = plants have died. The method, then: as §2, with “SETVI: Setaria viridis” for “AVEFA: Avena fatua”
The subject of assay [8] is Lolium multiflorum. The assay can be described thus: Pre-emergence herbicidal effect. As to conditions: 320 g/ha, scored visually after 3 weeks vs untreated controls, 100% = plants have died.
Excerpt: as §1, with “LOLMU: Lolium multiflorum” for “SETVI: Setaria viridis”

For assay [9], the system named is Avena fatua. The experiment in a line: Pre-emergence herbicidal effect. As to conditions: 320 g/ha, scored visually after 3 weeks vs untreated controls, 100% = plants have died.
Excerpt: as §1, with “AVEFA: Avena fatua” for “SETVI: Setaria viridis”

Assay [10] concerns Alopecurus myosuroides. The experiment in a line: Post-emergence herbicidal effect. As to conditions: one-leaf stage, 320 g/ha, assessed visually after about 3 weeks, 100% = plants have died. The method, then:
as §2, with “ALOMY: Alopecurus myosuroides” for “AVEFA: Avena fatua”

For the compound `CCc1cc(C)cc(CC)c1C1=C(O)C2CCOCCN2C1=O` (stereo not drawn) [Example Ia-1-3, 8-(2,6-Diethyl-4-methylphenyl)-9-hydroxy-1,4,5,9a-tetrahydropyrrolo[1,2-d][1,4]oxazepin-7(2H)-one], the “Pre-emergence action SETVI (herbicidal activity in percent)” value with Setaria viridis [1] turned out to be 100%. Also, the “Post-emergence effectiveness AVEFA (herbicidal action in percent)” value with Avena fatua [2] was found to be 100%. For the same compound, the “Pre-emergence action ALOMY (herbicidal activity in percent)” value in the assay with Alopecurus myosuroides [3] turned out to be 100%. The “Post-emergence effectiveness ECHCG (herbicidal action in percent)” value with Echinochloa crus-galli [4] is listed as 100%. In the assay on Lolium multiflorum [5], the “Post-emergence effectiveness LOLMU (herbicidal action in percent)” value is reported as 100%. Also, the “Pre-emergence action ECHCG (herbicidal activity in percent)” value with Echinochloa crus-galli [6] is 100%. Besides, in the assay on Setaria viridis [7], the “Post-emergence effectiveness SETVI (herbicidal action in percent)” value was 100%. Moreover, in the assay with Lolium multiflorum [8], the “Pre-emergence action LOLMU (herbicidal activity in percent)” value amounted to 100%. For the same compound, the “Pre-emergence action AVEFA (herbicidal activity in percent)” value in the assay with Avena fatua [9] amounted to 100%. Besides, the “Post-emergence effectiveness ALOMY (herbicidal action in percent)” value in the assay with Alopecurus myosuroides [10] was found to be 100%.
With `CCc1cc(C)cc(CC)c1C1=C(OC(=O)OC)C2CCOCCN2C1=O` (stereo not drawn) [Example Ib-1-1, 8-(2,6-Diethyl-4-methylphenyl)-7-oxo-1,2,4,5,7,9a-hexahydropyrrolo[1,2-d][1,4]oxazepin-9-yl methyl carbonate], the “Pre-emergence action SETVI (herbicidal activity in percent)” value in the assay on Setaria viridis [1] is reported as 100%. For the same compound, in the assay on Avena fatua [2], the “Post-emergence effectiveness AVEFA (herbicidal action in percent)” value was 100%. Also, in the assay with Alopecurus myosuroides [3], the “Pre-emergence action ALOMY (herbicidal activity in percent)” value came out at 100%. Moreover, the “Post-emergence effectiveness ECHCG (herbicidal action in percent)” value in the assay on Echinochloa crus-galli [4] is reported as 100%. In the assay on Lolium multiflorum [5], the “Post-emergence effectiveness LOLMU (herbicidal action in percent)” value turned out to be 100%. Further, the “Pre-emergence action ECHCG (herbicidal activity in percent)” value with Echinochloa crus-galli [6] is listed as 100%. The “Post-emergence effectiveness SETVI (herbicidal action in percent)” value in the assay on Setaria viridis [7] is on record as 100%. Also, the “Pre-emergence action LOLMU (herbicidal activity in percent)” value with Lolium multiflorum [8] came out at 100%. For the same compound, the “Pre-emergence action AVEFA (herbicidal activity in percent)” value in the assay with Avena fatua [9] came to 100%. Besides, the “Post-emergence effectiveness ALOMY (herbicidal action in percent)” value in the assay on Alopecurus myosuroides [10] was 100%.
For `Cc1cc(C)c(C2=C(O)C3CCOCCN3C2=O)c(C)c1` (stereo not drawn) [Ia-1-1], the “Pre-emergence action SETVI (herbicidal activity in percent)” value in the assay on Setaria viridis [1] was determined as 90%. In the assay on Avena fatua [2], the “Post-emergence effectiveness AVEFA (herbicidal action in percent)” value is recorded as 100%. The “Pre-emergence action ALOMY (herbicidal activity in percent)” value with Alopecurus myosuroides [3] is 100%. Further, the “Post-emergence effectiveness ECHCG (herbicidal action in percent)” value in the assay on Echinochloa crus-galli [4] is reported as 100%. Moreover, the “Post-emergence effectiveness LOLMU (herbicidal action in percent)” value with Lolium multiflorum [5] is reported as 100%. Also, the “Pre-emergence action ECHCG (herbicidal activity in percent)” value with Echinochloa crus-galli [6] worked out at 100%. Also, in the assay on Setaria viridis [7], the “Post-emergence effectiveness SETVI (herbicidal action in percent)” value is recorded as 100%. The “Pre-emergence action LOLMU (herbicidal activity in percent)” value with Lolium multiflorum [8] was found to be 100%. Further, the “Pre-emergence action AVEFA (herbicidal activity in percent)” value with Avena fatua [9] was 100%. Further, in the assay with Alopecurus myosuroides [10], the “Post-emergence effectiveness ALOMY (herbicidal action in percent)” value was 100%.
As for `CCc1cc(C)cc(C)c1C1=C(O)C2CCOCCN2C1=O` (stereo not drawn) [Ia-1-2], in the assay on Setaria viridis [1], the “Pre-emergence action SETVI (herbicidal activity in percent)” value is 100%. In addition, the “Post-emergence effectiveness AVEFA (herbicidal action in percent)” value in the assay on Avena fatua [2] came out at 100%. For the same compound, the “Pre-emergence action ALOMY (herbicidal activity in percent)” value in the assay with Alopecurus myosuroides [3] came out at 100%. Moreover, in the assay on Echinochloa crus-galli [4], the “Post-emergence effectiveness ECHCG (herbicidal action in percent)” value was found to be 100%. For the same compound, the “Post-emergence effectiveness LOLMU (herbicidal action in percent)” value with Lolium multiflorum [5] came out at 100%. In addition, the “Pre-emergence action ECHCG (herbicidal activity in percent)” value in the assay with Echinochloa crus-galli [6] is 100%. Besides, in the assay on Setaria viridis [7], the “Post-emergence effectiveness SETVI (herbicidal action in percent)” value was found to be 100%. Also, the “Pre-emergence action LOLMU (herbicidal activity in percent)” value in the assay with Lolium multiflorum [8] is on record as 100%. In addition, the “Pre-emergence action AVEFA (herbicidal activity in percent)” value in the assay on Avena fatua [9] turned out to be 100%. Besides, the “Post-emergence effectiveness ALOMY (herbicidal action in percent)” value with Alopecurus myosuroides [10] is recorded as 100%.
Turning to `CCc1cccc(C)c1C1=C(O)C2CCOCCN2C1=O` (stereo not drawn) [Ia-1-4], the “Pre-emergence action SETVI (herbicidal activity in percent)” value in the assay with Setaria viridis [1] amounted to 100%. Further, in the assay on Avena fatua [2], the “Post-emergence effectiveness AVEFA (herbicidal action in percent)” value worked out at 100%. In addition, the “Pre-emergence action ALOMY (herbicidal activity in percent)” value in the assay with Alopecurus myosuroides [3] is given as 80%. Also, the “Post-emergence effectiveness ECHCG (herbicidal action in percent)” value in the assay with Echinochloa crus-galli [4] came to 100%. For the same compound, the “Post-emergence effectiveness LOLMU (herbicidal action in percent)” value with Lolium multiflorum [5] was 100%. Further, the “Pre-emergence action ECHCG (herbicidal activity in percent)” value in the assay on Echinochloa crus-galli [6] was found to be 100%. Besides, the “Post-emergence effectiveness SETVI (herbicidal action in percent)” value with Setaria viridis [7] amounted to 100%. Besides, the “Pre-emergence action LOLMU (herbicidal activity in percent)” value with Lolium multiflorum [8] is listed as 100%. In the assay on Avena fatua [9], the “Pre-emergence action AVEFA (herbicidal activity in percent)” value is listed as 100%. In addition, the “Post-emergence effectiveness ALOMY (herbicidal action in percent)” value in the assay with Alopecurus myosuroides [10] is recorded as 100%.
Regarding `CCc1cc(Cl)cc(OC)c1C1=C(O)C2CCOCCN2C1=O` (stereo not drawn) [Ia-1-6], the “Pre-emergence action SETVI (herbicidal activity in percent)” value in the assay with Setaria viridis [1] is reported as 100%. In the assay with Avena fatua [2], the “Post-emergence effectiveness AVEFA (herbicidal action in percent)” value is 100%. Moreover, the “Pre-emergence action ALOMY (herbicidal activity in percent)” value in the assay with Alopecurus myosuroides [3] was 100%. For the same compound, the “Post-emergence effectiveness ECHCG (herbicidal action in percent)” value in the assay on Echinochloa crus-galli [4] worked out at 100%. The “Post-emergence effectiveness LOLMU (herbicidal action in percent)” value with Lolium multiflorum [5] is 100%. Further, in the assay with Echinochloa crus-galli [6], the “Pre-emergence action ECHCG (herbicidal activity in percent)” value was found to be 100%. In addition, in the assay with Setaria viridis [7], the “Post-emergence effectiveness SETVI (herbicidal action in percent)” value was determined as 100%. Besides, the “Pre-emergence action LOLMU (herbicidal activity in percent)” value in the assay on Lolium multiflorum [8] came out at 100%. The “Pre-emergence action AVEFA (herbicidal activity in percent)” value in the assay on Avena fatua [9] was found to be 100%. Further, in the assay with Alopecurus myosuroides [10], the “Post-emergence effectiveness ALOMY (herbicidal action in percent)” value is on record as 100%.
